Experimental data published in patent publication US7230013B2, “C10 carbamoyloxy substituted taxane compositions” (Florida State University Research Foundation, Inc., priority 2000, dated 2007).

Tests used:
HCT116 cells = assay: In vitro cytotoxicity measured by the cell colony formation assay; format: cell-based; settings: Homo sapiens, HCT-116; read-out: IN VITRO ID 50 (nm) HCT116
Description: In Vitro Cytotoxicity Measured by the Cell Colony Formation Assay
Four hundred cells (HCT116) were plated in 60 mm Petri dishes containing 2.7 mL of medium (modified McCoy's 5a medium containing 10% fetal bovine serum and 100 units/mL penicillin and 100 µg/mL streptomycin). The cells were incubated in a CO2 incubator at 37° C. for 5 h for attachment to the bottom of Petri dishes. The compounds identified in Example 2 were made up fresh in medium at ten times the final concentration, and then 0.3 mL of this stock solution was added to the 2.7 mL of medium in the dish. The cells were then incubated with drugs for 72 h at 37° C. At the end of incubation the drug-containing media were decanted, the dishes were rinsed with 4 mL of Hank's Balance Salt Solution (HBSS), 5 mL of fresh medium was added, and the dishes were returned to the incubator for colony formation. The cell colonies were counted using a colony counter after incubation for 7 days.

Compound | melting point | IC50 (HCT116 cells)
CCNC(=O)O[C@H]1C(=O)[C@@]2(C)C([C@H](OC(=O)c3ccccc3)[C@]3(O)C[C@H](OC(=O)[C@H](O)[C@@H](NC(=O)OC(C)(C)C)c4cccs4)C(C)=C1C3(C)C)[C@]1(OC(C)=O)CO[C@@H]1C[C@@H]2O (some centres unmarked) (hydrate or solvate) [Compound 2722, 3′-Desphenyl-3′-(2-thienyl)-10-N-ethylcarbamoyl docetaxel] | 166 to 168 °C | –
CCNC(=O)O[C@H]1C(=O)[C@@]2(C)C([C@H](OC(=O)c3ccccc3)[C@]3(O)C[C@H](OC(=O)[C@H](O)[C@@H](NC(=O)OC(C)(C)C)c4cccs4)C(C)=C1C3(C)C)[C@]1(OC(C)=O)CO[C@@H]1C[C@@H]2O (some centres unmarked) [Compound 2722, 3′-Desphenyl-3′-(2-thienyl)-10-N-ethylcarbamoyl docetaxel] | – | < 1 nM
